Assay [1] has as its target T1, Human lysyl tRNA Synthetase (KRS) (Homo sapiens, UniProt Q15046).
T1 construct: His tag with PreScission site (His PP pET15b); made in house; host or cells: E. coli BL21 (DE3)
In words: In vitro inhibition of human lysyl tRNA synthetase (KRS), Biomol green phosphate detection. The conditions noted are these: 3.5 μM ATP, 6 μM L-Lysine, 5 h room temperature; read-out: Hs KRS pIC50 (converted). The assay is classed as biochemical. As to the method: The gene coding for Human KRS, codon optimized for expression in E. coli, was obtained from Genscript and cloned into a His PP pET15b vector using Nde1 and Xho1 restriction sites. The resulting vector was used to transform BL21 (DE3) competent cells for protein expression. A 120 ml overnight culture was set up and grown at 37° C. 200 rpm for 16 h and used the next day to inoculate 6 litres of Autoinduction+AMP medium. This culture was grown at 37° C. for 4 h then 20° C. for 20 h. The cells were harvested by centrifugation at 3,500 g for 30 min then stored at −20° C. The resulting cell pellet was 50 g. Lysis buffer (150 ml, 25 mM HEPES/500 mM NaCl/20 mM imidazole/2 mM DTT/10% glycerol pH 7.5/protease inhibitor tablets/DNAase) was added and the pellets for defrosted at room temperature for approximately 10 min. The slurry was then passed through a Cell Disrupter (Constant Systems) set at […] to lyse the cells. The sample was then centrifuged at 40,000 g for 20 min. The supernatant was then filtered using syringe filters to 0.45 μm. The supernatant was loaded onto a 5 ml HiTrap Ni HP column that had been equilibrated with BufferA (25 mM HEPES/500 mM NaCl/20 mM Imidazole/2 mM DTT/10% Glycerol pH 7.5) at 5 ml/min using an AKTA Pure system. Once loaded the column was washed with 10 column volumes buffer A. A 5% step of Buffer B (25 mM HEPES/500 mM NaCl/500 mM Imidazole/2 mM DTT/10% Glycerol pH 7.5) was then used to wash off His rich contaminating proteins. A gradient of 5-50% B was used to elute the protein. Approximately 55 mg of protein was present in the fractions containing the HsKRS protein. The sample was then passed through a 0.2 μm filter, before loading onto a XK26/60 Superdex 200 column equilibrated with Buffer C (25 mM HEPES/150 mM NaCl/2 mM DTT/10% glycerol pH 7.0) using an AKTA Pure system at 4° C. at 2 ml/min. The sample was then dialyzed into 25 mM HEPES/500 mM NaCl//2 mM DTT/10% glycerol/0.25% azide pH 7.0. The protein was concentrated to 1 mg/ml and frozen at −80° C. Approximately 23 mg of protein was produced.
Assay Method for Measurement of In Vitro Inhibition of Human lysyl tRNA Synthetase (KRS)
Potency of compounds was determined in 10 points dose-response inhibition curves. Compounds were transferred into 384-well clear bottom plates (Greiner Bio-One, 781101) using an Echo 550 acoustic dispenser (Labcyte). Using an automatic liquid dispenser, 50 μL reaction mixes were prepared by adding 25 μL of substrate mix into all wells followed by the addition of 25 μL enzyme mix into all wells (final reaction: 30 mM Tris-HCl, pH 8.0, 40 mM MgCl2, 140 mM NaCl, 30 mM KCl, 0.01% Brij-35, 1 mM DTT, 3.5 μM ATP, 6 μM L-Lysine, 200 nM […] and 0.5 U/mL Pyrophosphatase). Complete inhibition control reactions were performed in the presence of 100 μM of control compoundand the plates were incubated at room temperature for 5 h. Reactions were stopped by the addition of Biomol green (50 μL: Enzo Life Sciences) with the amount of free phosphate detected by measuring absorbance (650 nm) after 20 min further incubation (BMG Pherastar plate reader). Counter screen assays to eliminate direct inhibition of pyrophsphatase were performed using 0.5 U/mL pyrophosphatase and 3 μM pyrophosphate as substrate in the same assay buffer (30 mM Tris-HCl, pH 8.0, 40 mM MgCl2, 140 mM NaCl, 30 mM KCl, 0.01% Brij-35, 1 mM DTT) for 5 hours at room temperature. Biomol green was added and incubated for 20 min before detection as above. Samples were run in duplicate and data was processed and analysed using ActivityBase (IDBS).

Assay [2] relates to Hep G2 (Human hepatocyte carcinoma). In words: In vitro inhibition of HepG2 cells (cytotoxicity). The assay is classed as cell-based. The settings on record: read-out: Hs HepG2 PEC50 (converted). The source says:
Assay Method for Measurement of In Vitro Inhibition of HepG2 Cells (Cytotoxicity)
These experiments were run in accordance with the method of Mersch-Sundermann V et. al. Toxicology 2004, 198:329-340

The test system of the next assay is Cryptosporidium parvum. In words: In vitro inhibition of Cryptosporidium (method of Bessoff et al.). The assay is classed as cell-based. The settings on record: read-out: C. parvum PEC50 (converted). The text has this: Assay Method for Measurement of In Vitro Inhibition of Cryptosporidium
These experiments were run in accordance with the method of Besssoff et. al. Antimicrob. Agents Chemother. 2013, 57:1804-1814. Results from these experiments are provided in the Experimental Results hereinafter.

In assay [3] the target is Cryptosporidium parvum lysyl t-RNA synthetase (Cp KRS) (Cryptosporidium parvum, UniProt Q5CR27). In words: In vitro inhibition of Cryptosporidium lysyl tRNA synthetase (KRS), Biomol green phosphate detection. The assay is classed as biochemical. The conditions noted are these: 300 nM CpKRS, 500 μM ATP, 1.2 mM L-Lysine, 8 h room temperature; read-out: C. parvum KRS pIC50 (converted). The source says:
The protein expression and purification method for recombinant CpKRS was described in Baragana et aL, PNAS, 2019, 116 (4), 7015-7020 and will be summarised below.
The C. parvum KRS had 45 residues removed at the N-terminus. All amplicons were cloned into the pAVA0421 expression vector using the ligation independent cloning (LIC) method. Recombinant plasmids were transformed into Rosetta BL21(DE3) competent cells and plated on LB agar plates with ampicillin, carbenicillin, and chloramphenicol selection. Clones were expressed using previously reported autoinduction methods and scaled to 2-litre cultures in a shake flasks. Cell pellets were harvested and lysed with 100 mM HEPES/150 mM NaCl/5% Glycerol/20 mM imidazole/0.5 mM TCEP pH 7.5/DNase/Complete inhibitor tablets) using a Cell Disrupter (Constant Systems) at 30 KPSI and centrifuged at 40,000 g for 20 min remove cell debris. The supernatant was loaded onto a 5 ml HiTrap Ni HP column that had been equilibrated with Buffer A (100 mM HEPES/150 mM NaCl/5% Glycerol/20 mM imidazole/0.5 mM TCEP pH 7.5) at 5 ml/min using an AKTA Pure system. Once loaded the column was washed with 10 column volumes of buffer A. A 5% step of Buffer B (100 mM HEPES/150 mM NaCl/5% Glycerol/500 mM imidazole/0.5 mM TCEP pH 7.5) was then used to wash off His-rich contaminating proteins. A linear gradient of 5-50% B was used to elute the protein. Approximately 287 mg of protein was present in the fractions containing the CpKRS protein. The sample was then concentrated to approximately 30 ml, passed through a 0.2 μm filter, before loading onto a XK26/60 Superdex 200 column using an AKTA Pure system at 4° C. at 2 ml/min 10 ml at a time. The eluted protein was pooled then frozen at −80° C. The concentration of the protein was 1.3 mg/ml. Sometimes the protein was cleaved with PreScission protease overnight, a second Ni column performed in flow through mode to removed uncleaved protein. GST beads were then added to remove the PreScission Protease. The protein was then gel filtered as descripted above.
Assay Method for Measurement of In Vitro Inhibition of Cryptosporidium lysyl tRNA Synthetase (KRS)
Potency of compounds was determined in 10 points dose-response inhibition curves. Compounds were transferred into 384-well clear bottom plates (Greiner Bio-One, 781101) using an Echo 550 acoustic dispenser (Labcyte). Using an automatic liquid dispenser, 50 μL reaction mixes were prepared by adding 25 μL of substrate mix into all wells followed by the addition of 25 μL enzyme mix into compounds and no inhibition control wells (final reaction: 100 mM HEPES, pH 7.4, 20 mM MgCl2, 1 mM DTT, 500 μM ATP, 1.2 mM L-Lysine, 300 nM CpKRS and 0.5 U/mL Pyrophosphatase). Complete inhibition control reactions were performed in the absence of enzyme and the plates were incubated at room temperature for 8 h. Reactions were stopped by the addition of Biomol green (50 μL: Enzo Life Sciences) with the amount of free phosphate detected by measuring absorbance (650 nm) after 20 min further incubation (BMG Pherastar plate reader). Counter screen assays to eliminate direct inhibition of pyrophosphatase were performed using 0.5 U/mL pyrophosphatase and 3 μM pyrophosphate as substrate in the same assay buffer (100 mM HEPES, pH 7.4, 20 mM MgCl2, 1 mM DTT) for 8 hours at room temperature. Biomol green was added and incubated for 20 min before detection as above. Samples were run in duplicate and data was processed and analysed using ActivityBase (IDBS).

For a further assay, the system named is Cryptosporidium. The settings on record: Cryptosporidium-HIV co-infected patients not co-treated with HIV antiretroviral therapy; cited from earlier work.
A further assay addresses PfLysRS (Plasmodium falciparum, UniProt Q8IDJ8). The settings on record: Hoepfner et al, Cell Host Microbe, 2012; cited from earlier work.

A value given as a limit tells only on which side of the number the result lay.

Chain of Cryptosporidium parvum lysyl t-RNA synthetase (Cp KRS) (Q5CR27 entry or part of it): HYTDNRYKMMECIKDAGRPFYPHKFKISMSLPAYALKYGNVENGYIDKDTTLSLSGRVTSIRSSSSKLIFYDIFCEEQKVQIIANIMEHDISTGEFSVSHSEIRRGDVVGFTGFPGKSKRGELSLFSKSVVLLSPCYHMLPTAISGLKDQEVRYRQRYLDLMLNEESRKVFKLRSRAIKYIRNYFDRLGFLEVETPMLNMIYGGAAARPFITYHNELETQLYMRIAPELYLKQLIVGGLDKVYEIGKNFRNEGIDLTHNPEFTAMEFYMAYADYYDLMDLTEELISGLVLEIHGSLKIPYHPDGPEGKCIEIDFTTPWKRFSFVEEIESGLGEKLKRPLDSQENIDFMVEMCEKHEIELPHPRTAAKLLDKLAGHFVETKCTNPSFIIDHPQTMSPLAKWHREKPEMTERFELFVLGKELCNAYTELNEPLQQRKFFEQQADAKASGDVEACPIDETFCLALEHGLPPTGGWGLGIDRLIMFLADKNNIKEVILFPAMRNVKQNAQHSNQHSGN
T1 sequence (Q15046 whole entry): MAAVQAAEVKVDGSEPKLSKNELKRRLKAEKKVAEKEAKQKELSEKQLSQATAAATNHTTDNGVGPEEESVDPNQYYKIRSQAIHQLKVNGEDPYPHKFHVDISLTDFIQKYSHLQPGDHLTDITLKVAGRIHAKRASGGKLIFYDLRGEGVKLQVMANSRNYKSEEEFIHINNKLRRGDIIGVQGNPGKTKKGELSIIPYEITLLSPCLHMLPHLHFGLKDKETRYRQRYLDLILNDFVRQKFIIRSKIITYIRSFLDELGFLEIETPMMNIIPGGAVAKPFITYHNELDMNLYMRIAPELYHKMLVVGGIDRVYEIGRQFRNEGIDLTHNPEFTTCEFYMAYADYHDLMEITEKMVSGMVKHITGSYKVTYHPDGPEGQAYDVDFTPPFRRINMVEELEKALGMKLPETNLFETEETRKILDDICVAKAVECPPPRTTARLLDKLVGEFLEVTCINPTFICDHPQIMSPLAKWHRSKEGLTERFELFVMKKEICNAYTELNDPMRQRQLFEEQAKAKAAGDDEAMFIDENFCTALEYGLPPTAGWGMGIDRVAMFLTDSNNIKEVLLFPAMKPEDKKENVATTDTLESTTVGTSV
Chain of PfLysRS (Q8IDJ8 1-583): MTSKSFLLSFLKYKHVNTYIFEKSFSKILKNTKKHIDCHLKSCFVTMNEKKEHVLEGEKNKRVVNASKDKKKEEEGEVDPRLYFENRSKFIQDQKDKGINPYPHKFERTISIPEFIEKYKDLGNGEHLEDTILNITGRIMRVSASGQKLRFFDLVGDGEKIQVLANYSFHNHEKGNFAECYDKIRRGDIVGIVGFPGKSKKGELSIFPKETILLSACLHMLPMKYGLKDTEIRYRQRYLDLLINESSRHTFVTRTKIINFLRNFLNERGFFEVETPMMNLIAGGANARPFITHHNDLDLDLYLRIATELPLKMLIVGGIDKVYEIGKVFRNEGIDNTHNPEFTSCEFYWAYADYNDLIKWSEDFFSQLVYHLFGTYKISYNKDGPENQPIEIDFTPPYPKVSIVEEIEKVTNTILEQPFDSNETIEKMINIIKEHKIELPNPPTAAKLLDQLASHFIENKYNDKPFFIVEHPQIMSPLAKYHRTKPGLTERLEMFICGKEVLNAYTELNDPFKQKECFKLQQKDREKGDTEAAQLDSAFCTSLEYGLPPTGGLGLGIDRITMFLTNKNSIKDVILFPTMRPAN

Consider `Nc1nc2c(c(C(F)(F)F)n1)C(=O)N(C[C@@H]1CCC[C@@H](C(F)(F)F)C1)C2` [Compound 5, 2-amino-4-(trifluoromethyl)-6-(((1R,3R)-3-(trifluoromethyl)cyclohexyl)methyl)-6,7-dihydro-5H-pyrrolo[3,4-d]pyrimidin-5-one], for which the results for the IC50 in assay [1] and in assay [3] were 20 µM and 1.58 µM, respectively. The EC50 in assay [2] was 15.8 µM; in the assay with Cryptosporidium parvum, 0.0501 µM.
As for `CC(=O)Oc1ccccc1C(=O)Nc1ncc([N+](=O)[O-])s1` [Nitazoxanide], in the assay with Cryptosporidium, the “efficacy in clinical trials” value is reported as “ineffective”.
As to `C[C@H]1CCC[C@H](C[C@H]2Cc3cc(O)cc(O)c3C(=O)O2)O1` [Cladosporin, cladosporin], at PfLysRS, the “selectivity for PfLysRS vs HsLysRS” value is reported as “more than 100 fold”.
With `Nc1nc2c(c(C(F)(F)F)n1)C(=O)N(C[C@H]1CCC[C@@H](C(F)(F)F)C1)C2` [Compound 6, 2-amino-4-(trifluoromethyl)-6-(((1S,3R)-3-(trifluoromethyl)cyclohexyl)methyl)-6,7-dihydro-5H-pyrrolo[3,4-d]pyrimidin-5-one], the IC50 in assay [1] was > 100 µM; in assay [3], > 50.1 µM. For the same compound, in assay [2], the EC50 is > 100 µM.
For `Nc1nc2c(c(C(F)(F)F)n1)C(=O)N(C[C@H]1CCC[C@H](C(F)(F)F)C1)C2` [Compound 7, 2-amino-4-(trifluoromethyl)-6-(((1S,3S)-3-(trifluoromethyl)cyclohexyl)methyl)-6,7-dihydro-5H-pyrrolo[3,4-d]pyrimidin-5-one], the IC50 in assay [1] was 63.1 µM; in assay [3], 15.8 µM. For the same compound, the EC50 in assay [2] was 79.4 µM.

The values are drawn from patent publication US20250270216A1, “ANTI-INFECTIVE AGENTS” (UNIVERSITY OF DUNDEE, priority 2022, published 2025).
